Test results: ChEMBL document CHEMBL4818987, “Recent advances of podophyllotoxin/epipodophyllotoxin hybrids in anticancer activity, mode of action, and structure-activity relationship: An update (2010-2020)” (Eur J Med Chem, 2020)

Legend:
SK-OV-3 = experiment: Antiproliferative activity against human SKOV3 cells incubated for 48 hrs by MTT assay; type: functional, cell-based; details: SK-OV-3, 48 h
BGC-823 = experiment: Antiproliferative activity against human BGC-823 cells incubated for 48 hrs by MTT assay; type: functional, cell-based; details: BGC-823, 48 h
MGC-803 = experiment: Antiproliferative activity against human MGC-803 cells incubated for 48 hrs by MTT assay; type: functional, cell-based; details: MGC-803, 48 h
K562/A02 [1] = experiment: Antiproliferative activity against human K562/A02 cells incubated for 48 hrs by MTT assay; type: functional, cell-based; details: K562/A02, 48 h
A549 [2] = experiment: Antiproliferative activity against human A549 cells incubated for 24 hrs by MTT assay; type: functional, cell-based; details: A549, 24 h
HeLa [3] = experiment: Antiproliferative activity against human HeLa cells incubated for 24 hrs by MTT assay; type: functional, cell-based
[4] = Selectivity ratio of IC50 for human L02 cells to IC50 for human Calu-1 cells; type: toxicity; details: L02 cells / Calu-1 cells, read-out: Ratio IC50
[5] = Selectivity ratio of IC50 for human L02 cells to IC50 for human HeLa cells; type: toxicity; details: read-out: Ratio IC50
[6] = Selectivity ratio of IC50 for African green monkey Vero cells to IC50 for human A549 cells; type: toxicity; details: read-out: Ratio IC50
[7] = Selectivity ratio of IC50 for African green monkey Vero cells to IC50 for human Calu-1 cells; type: toxicity; details: Vero cells / Calu-1 cells, read-out: Ratio IC50
Calu-1 = experiment: Antiproliferative activity against human Calu-1 cells incubated for 24 hrs by MTT assay; type: functional, cell-based; details: Calu-1, 24 h
[8] = Selectivity ratio of IC50 for African green monkey Vero cells to IC50 for human HeLa cells; type: toxicity; details: read-out: Ratio IC50
Vero = experiment: Cytotoxicity against African green monkey Vero cells; type: cell-based; details: Chlorocebus sabaeus
L02 [9] = experiment: Cytotoxicity against human L02 cells; type: cell-based
[10] = Selectivity ratio of IC50 for human L02 cells to IC50 for human A549 cells; type: toxicity; details: read-out: Ratio IC50
A549 [11] = experiment: Antiproliferative activity against human A549 cells incubated for 48 hrs by MTT assay; type: functional, cell-based; details: A549, 48 h
MCF7 [12] = experiment: Antiproliferative activity against human MCF7 cells incubated for 48 hrs by MTT assay; type: functional, cell-based; details: MCF7, 48 h
SW480 [13] = experiment: Antiproliferative activity against human SW480 cells incubated for 48 hrs by MTT assay; type: functional, cell-based; details: SW480, 48 h
SMMC-7721 [14] = experiment: Antiproliferative activity against human SMMC-7721 cells incubated for 48 hrs by MTT assay; type: functional, cell-based; details: SMMC-7721, 48 h
HL-60 [15] = experiment: Antiproliferative activity against human HL-60 cells incubated for 48 hrs by MTT assay; type: functional, cell-based; details: HL-60, 48 h
SMMC-7721 [16] = experiment: Potency index, ratio of cisplatin IC50 to test compound IC50 for antiproliferative activity against human SMMC7721 cells; type: functional
A549 [17] = experiment: Potency index, ratio of cisplatin IC50 to test compound IC50 for antiproliferative activity against human A549 cells; type: functional
MCF7 [18] = experiment: Potency index, ratio of cisplatin IC50 to test compound IC50 for antiproliferative activity against human MCF7 cells; type: functional
SW480 [19] = experiment: Potency index, ratio of cisplatin IC50 to test compound IC50 for antiproliferative activity against human SW480 cells; type: functional
HL-60 [20] = experiment: Potency index, ratio of cisplatin IC50 to test compound IC50 for antiproliferative activity against human HL-60 cells; type: functional
K562 [21] = experiment: Cytotoxicity against human K562 cells by SRB assay; type: functional, cell-based
K562/A02 [22] = experiment: Cytotoxicity against human K562/A02 cells by SRB assay; type: functional, cell-based
HeLa [23] = experiment: Cytotoxicity against human HeLa cells by MTT assay; type: functional, cell-based
KB = experiment: Cytotoxicity against human KB cells by MTT assay; type: functional, cell-based
[24] = Cytotoxicity against human KBV cells by MTT assay; type: functional, cell-based
HeLa [25] = experiment: Antiproliferative activity against human HeLa cells incubated for 48 hrs by MTT assay; type: functional, cell-based
K562 [26] = experiment: Antiproliferative activity against human K562 cells incubated for 48 hrs by MTT assay; type: functional, cell-based; details: K562, 48 h
K562/Adr [27] = experiment: Antiproliferative activity against human K562/ADM cells incubated for 48 hrs by MTT assay; type: functional, cell-based
K562/Adr [28] = experiment: Potency index, ratio of etoposide IC50 to test compound IC50 for antiproliferative activity against human K562/ADM cells; type: functional
HepG2 = experiment: Antiproliferative activity against human HepG2 cells incubated for 48 hrs by MTT assay; type: functional, cell-based; details: HepG2, 48 h
MCF7 [29] = experiment: Antiproliferative activity against human MCF7 cells incubated for 24 hrs by MTT assay; type: functional, cell-based; details: MCF7, 24 h
[30] = Cytotoxicity against PBMC (unknown origin) incubated for 24 hrs by CCK8 assay
L02 [31] = experiment: Cytotoxicity against human L02 cells incubated for 24 hrs by CCK8 assay; type: functional, cell-based; details: L02, 24 h
L02 [32] = experiment: Cytotoxicity against human HL7702 cells incubated for 48 hrs by MTT assay; type: cell-based; details: L02, 48 h

For `COc1cc(C(=O)/C=C/c2ccc(F)cc2)ccc1OCc1cn([C@@H]2c3cc4c(cc3[C@@H](c3cc(OC)c(OC)c(OC)c3)[C@H]3C(=O)OC[C@@H]32)OCO4)nn1`, the IC50 (SK-OV-3) was 530 nM, the IC50 (BGC-823) was 530 nM and the IC50 (MGC-803) was 530 nM. For the same compound, the IC50 (K562/A02 [1]) was 530 nM.

With `COc1cc([C@@H]2c3cc4c(cc3[C@H](OC(=O)CCCCC3CCSC(c5ccc(C)cc5)S3)[C@H]3COC(=O)[C@H]23)OCO4)cc(OC)c1OC` (stereo partly specified) the IC50 (A549 [2]) was 2680 nM, the IC50 (HeLa [3]) was 2680 nM and the selectivity ratio [4] was ≥ 9.7. For the same compound, the selectivity ratio [5] was ≥ 9.7, the selectivity ratio [6] was ≥ 9.7 and the selectivity ratio [7] was ≥ 9.7. For the same compound, the IC50 (Calu-1) was 2680 nM, the selectivity ratio [8] was ≥ 9.7 and the IC50 (Vero) was > 93800 nM. For the same compound, the IC50 (L02 [9]) was > 93.8 µM and the selectivity ratio [10] was ≥ 9.7.

For `CCCC(=O)O[C@@H]1[C@@H](OC(=O)CCC)[C@@H](O[C@@H]2c3cc4c(cc3[C@@H](c3cc(OC)c(OC)c(OC)c3)[C@H]3C(=O)OC[C@@H]32)OCO4)OC[C@H]1OC(=O)CCC`, the IC50 (A549 [11]) was > 2.9 µM, the IC50 (MCF7 [12]) was > 2.9 µM and the IC50 (SW480 [13]) was > 2.9 µM. For the same compound, the IC50 (SMMC-7721 [14]) was > 2.9 µM, the IC50 (HL-60 [15]) was 0.14 µM and the “Ratio IC50” value (SMMC-7721 [16]) was 1.9. For the same compound, the “Ratio IC50” value (A549 [17]) was 1.9, the “Ratio IC50” value (MCF7 [18]) was 1.9 and the “Ratio IC50” value (SW480 [19]) was 1.9.

For `COc1cc([C@@H]2c3cc4c(cc3[C@@H](n3cc(COC[C@H]5O[C@@H](OCc6cn([C@@H]7c8cc9c(cc8[C@@H](c8cc(OC)c(O)c(OC)c8)[C@H]8C(=O)OC[C@@H]87)OCO9)nn6)[C@H](OC(C)=O)[C@@H](OC(C)=O)[C@@H]5OC(C)=O)nn3)[C@H]3COC(=O)[C@H]23)OCO4)cc(OC)c1O`, the IC50 (A549 [11]) was 14 µM, the IC50 (MCF7 [12]) was 14 µM and the IC50 (SW480 [13]) was 14 µM. For the same compound, the IC50 (SMMC-7721 [14]) was 14 µM, the IC50 (HL-60 [15]) was 14 µM and the “Ratio IC50” value (SMMC-7721 [16]) was 2.8. The “Ratio IC50” value (A549 [17]) was 2.8, the “Ratio IC50” value (MCF7 [18]) was 2.8 and the “Ratio IC50” value (SW480 [19]) was 2.8. For the same compound, the “Ratio IC50” value (HL-60 [20]) was 2.8.

For `CCCC(=O)O[C@@H]1[C@@H](OC(=O)CCC)[C@H](OCc2cn([C@@H]3c4cc5c(cc4[C@@H](c4cc(OC)c(O)c(OC)c4)[C@H]4C(=O)OC[C@@H]43)OCO5)nn2)O[C@H](COCc2cn([C@@H]3c4cc5c(cc4[C@@H](c4cc(OC)c(O)c(OC)c4)[C@H]4C(=O)OC[C@@H]43)OCO5)nn2)[C@H]1OC(=O)CCC`, the IC50 (A549 [11]) was 14 µM, the IC50 (MCF7 [12]) was 14 µM and the IC50 (SW480 [13]) was 14 µM. For the same compound, the IC50 (SMMC-7721 [14]) was 14 µM, the IC50 (HL-60 [15]) was 14 µM and the “Ratio IC50” value (SMMC-7721 [16]) was 2.8. The “Ratio IC50” value (A549 [17]) was 2.8, the “Ratio IC50” value (MCF7 [18]) was 2.8 and the “Ratio IC50” value (SW480 [19]) was 2.8. The “Ratio IC50” value (HL-60 [20]) was 2.8.

Compound `COC(=O)c1cccc2c1c(C(=O)C(=O)N[C@@H]1c3cc4c(cc3[C@@H](c3cc(OC)c(OC)c(OC)c3)[C@H]3C(=O)OC[C@@H]31)OCO4)cn2C(=O)c1ccccc1` has an IC50 (K562 [21]) of 150 nM, an IC50 (K562/A02 [22]) of 150 nM and an IC50 (HeLa [23]) of 150 nM. For the same compound, the IC50 (KB) was 3.16 µM and the IC50 [24] was 0.15 µM.

`COc1cc([C@@H]2c3cc4c(cc3[C@@H](n3cnc([N+](=O)[O-])c3)[C@H]3COC(=O)[C@H]23)OCO4)cc(OC)c1O` gave an IC50 (HeLa [25]) of 8.12 µM, an IC50 (K562 [26]) of 4.16 µM and an IC50 (K562/Adr [27]) of 4.16 µM. For the same compound, the “Ratio IC50” value (K562/Adr [28]) was 18.4.

In the case of `COc1cc([C@@H]2c3cc4c(cc3[C@H](O)[C@H]3COC(=O)[C@H]23)OCO4)cc(OC)c1OC` [PODOFILOX], the IC50 (A549 [11]) is reported as 4.31 µM, the IC50 (HepG2) is reported as 4.31 µM and the IC50 (BGC-823) is reported as 4310 nM. For the same compound, the IC50 (A549 [2]) was 2130 nM, the IC50 (MCF7 [29]) was 2130 nM and the IC50 (HeLa [3]) was 2130 nM. The IC50 [30] was 5.02 µM, the IC50 (L02 [31]) was 2970 nM and the IC50 (L02 [32]) was 4.31 µM. The IC50 (Calu-1) was 2680 nM, the IC50 (Vero) was 1040 nM and the IC50 (L02 [9]) was 3.16 µM.

In the case of `CC[C@]1(O)C[C@H]2CN(CCc3c([nH]c4ccccc34)[C@@](C(=O)OC)(c3cc4c(cc3OC)N(C=O)[C@H]3[C@@](O)(C(=O)OC)[C@H](OC(C)=O)[C@]5(CC)C=CCN6CC[C@]43[C@@H]65)C2)C1` [VINCRISTINE], the IC50 [24] is reported as 50.3 µM.
